Laboratory results from patent US8383683B2, “Pharmaceutical use of substituted amides” (High Point Pharmaceuticals, LLC, priority 2007, dated 2013).

Columns and labels:
11βHSD1 [1] = target: T1, 11βHSD1 (Homo sapiens, UniProt P28845); experiment: 11βHSD1 enzyme assay (SPA, 3H-cortisone to 3H-cortisol); assay type: biochemical; design: An extract of yeast transformed with h-11βHSD1 (Hutt et al., FEBS Lett., 441, 25 (1998)) was used as the source of enzyme; made in house; conditions: extract of yeast transformed with h-11βHSD1; 120 nM 3H-cortisone, 4 mM β-NADPH, 60 min at 30° C.
T1 sequence (P28845 whole entry): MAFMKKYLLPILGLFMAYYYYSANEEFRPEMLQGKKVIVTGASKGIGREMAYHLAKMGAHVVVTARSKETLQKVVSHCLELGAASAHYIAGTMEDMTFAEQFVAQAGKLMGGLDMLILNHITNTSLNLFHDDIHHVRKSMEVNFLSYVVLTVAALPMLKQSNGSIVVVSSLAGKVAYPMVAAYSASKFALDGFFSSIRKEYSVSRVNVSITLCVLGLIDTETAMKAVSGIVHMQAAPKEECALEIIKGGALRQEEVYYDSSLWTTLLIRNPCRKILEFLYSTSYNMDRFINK
Protocol: Pharmacological Methods 11βHSD1 Enzyme Assay Materials
^3H-cortisone and anti-rabbit Ig coated scintillation proximity assay (SPA) beads were purchased from Amersham Pharmacia Biotech, β-NADPH was from Sigma and rabbit anti-cortisol antibodies were from Fitzgerald. An extract of yeast transformed with h-11βHSD1 (Hutt et al., FEBS Lett., 441, 25 (1998)) was used as the source of enzyme. The test compounds were dissolved in DMSO (10 mM). All dilutions were performed in a buffer containing 50 mM TRIS-HCl (Sigma Chemical Co), 4 mM EDTA (Sigma Chemical Co), 0.1% BSA (Sigma Chemical Co), 0.01% Tween-20 (Sigma Chemical Co) and 0.005% bacitracin (Novo Nordisk NS), pH=7.4. Optiplate 96 wells plates were supplied by Packard. The amount of ^3H-cortisol bound to the SPA beads was measured on TopCount NXT, Packard.
h-11βHSD1, 120 nM ^3H-cortisone, 4 mM β-NADPH, antibody (1:200), serial dilutions of test compound and SPA particles (2 mg/well) were added to the wells. The reaction was initiated by mixing the different components and was allowed to proceed under shaking for 60 min at 30° C. The reaction was stopped be the addition of 10 fold excess of a stopping buffer containing 500 μM carbenoxolone and 1 μM cortisone. Data was analysed using GraphPad Prism software.

11βHSD1 [2] = target: T1, 11βHSD1; design: host or cells: human volunteers and patients (in vivo); conditions: lean healthy volunteers and people with type 2 diabetes; cited from earlier work

SMILES | IC50 (11βHSD1 [1]) [nM] | insulin sensitivity (11βHSD1 [2])
CN(C(=O)CCCOc1ccc(Cl)cc1Cl)C1CCCC(CO)C1 (stereo not drawn) [Example 1-59, 4-(2,4-Dichloro-phenoxy)-N-(3-hydroxy-methyl-cyclo-hexyl)-N-methyl-butyramide] | 3 | 
CN(C(=O)CCCOc1ccc(Cl)cc1Cl)C1CCC(CO)CC1 (stereo not drawn) [Example 1-60, 4-(2,4-Dichloro-phenoxy)-N-(4-hydroxy-methyl-cyclohexyl)-N-methyl-butyramide] | 1 | 
CN(C(=O)CCCOc1ccc(Cl)cc1Cl)C1CCCC(O)C1 (stereo not drawn) [Example 1-61, 4-(2,4-Dichloro-phenoxy)-N-(3-hydroxy-cyclohexyl)-N-methyl-butyramide] | 56 | 
CN(C(=O)CCCOc1ccc(Cl)cc1Cl)[C@H]1CCCC[C@@H]1CO [Example 1-62, 4-(2,4-Dichloro-phenoxy)-N-((S)-2-hydroxymethyl-cyclo-hexyl)-N-methyl-butyramide] | 123 | 
CN(C(=O)CCCOc1ccc(Cl)cc1Cl)C1CC2CC1CC2O (stereo not drawn) [Example 1-64, 4-(2,4-Dichloro-phenoxy)-N-(5-hydroxy-bicyclo[2.2.1]hept-2-yl)-N-methyl-butyramide] | 2 | 
COC(=O)C12CC3CC(C1)C(NC(=O)CCCOc1ccc(Cl)cc1Cl)C(C3)C2 (stereo not drawn) [Example 1-68, 4-[4-(2,4-Dichloro-phenoxy)-butyrylamino]-adamantane-1-carboxylic acid methyl ester] | 17 | 
CCOC(=O)C12CCC(NC(=O)CCCOc3ccc(Cl)cc3Cl)(CC1)CC2 [Example 1-72, 4-[4-(2,4-Dichloro-phenoxy)-butyrylamino]-bicyclo[2.2.2]octane-1-carboxylic acid ethyl ester] | 198 | 
O=C(CCCOc1ccc(Cl)cc1Cl)NC12CCC(CO)(CC1)CC2 [Example 1-73, 4-(2,4-Dichloro-phenoxy)-N-(4-hydroxy-methyl-bicyclo[2.2.2]oct-1-yl)-butyramide] | 1 | 
CN(C(=O)CCCOc1ccc(Cl)cc1Cl)C1CCC(C(=O)O)CC1 (stereo not drawn) [Example 1-74, 4-{[4-(2,4-Dichloro-phenoxy)-butyryl]-methyl-amino}-cyclo-hexanecarboxylic acid] | 809 | 
CN(C(=O)CCCOc1ccc(Cl)cc1Cl)C1CCC(C(N)=O)CC1 (stereo not drawn) [Example 1-76, 4-{[4-(2,4-Dichloro-phenoxy)-butyryl]-methyl-amino}-cyclo-hexanecarboxylic acid amide] | 18 | 
CC(C)(O)C1CCC(NC(=O)CCCOc2ccc(Cl)cc2Cl)CC1 (stereo not drawn) [Example 1-79, 4-(2,4-Dichloro-phenoxy)-N-[4-(1-hydroxy-1-methyl-ethyl)-cyclohexyl]-butyramide] | 300 | 
CCOC(=O)C1CC2CC1CC2N(C)C(=O)CCCOc1ccc(Cl)cc1Cl (stereo not drawn) [Example 1-80, 5-{[4-(2,4-Dichloro-phenoxy)-butyryl]-methyl-amino}-bicyclo[2.2.1]heptane-2-carboxylic acid ethyl ester] | 700 | 
CC1(C)[C@@H](OC(=O)CCC(=O)O)CC[C@]2(C)[C@H]3C(=O)C=C4[C@@H]5C[C@@](C)(C(=O)O)CC[C@]5(C)CC[C@@]4(C)[C@]3(C)CC[C@@H]12 [carbenoxolone] |  | improves insulin sensitivity

Further compounds by falling IC50 (11βHSD1 [1]), results first:

IC50 (11βHSD1 [1]) [nM] | SMILES | insulin sensitivity (11βHSD1 [2])
628 | CN(C(=O)CCCOc1ccc(Cl)cc1Cl)[C@H]1CCCC[C@@H]1O [Example 1-57, 4-(2,4-Dichloro-phenoxy)-N-((1S,2S)-2-hydroxy-cyclohexyl)-N-methyl-butyramide] | 
479 | CN(C(=O)CCCOc1ccc(Cl)cc1Cl)C1CCC(S(=O)(=O)N(C)C)CC1 (stereo not drawn) [Example 1-70, 4-(2,4-Dichloro-phenoxy)-N-(4-dimethyl-sulfamoyl-cyclohexyl)-N-methyl-butyramide] | 
227 | O=C(CCCOc1ccccn1)NC1C2CC3CC1CC(O)(C3)C2 (stereo not drawn) [Example 1-87, N-(5-Hydroxy-adamantan-2-yl)-4-(pyridin-2-yloxy)-butyramide] | 
206 | CC(C)(CCOc1ccc(Cl)cc1Cl)C(=O)N1C2CCC1CC(O)C2 (stereo not drawn) [Example 2-3, 4-(2,4-Dichloro-phen-oxy)-1-(3-hydroxy-8-aza-bicyclo[3.2.1]oct-8-yl)-2,2-dimethyl-butan-1-one] | 
55 | CN(C(=O)CCCOc1ccc(Cl)cc1Cl)C1CCCC(C(=O)O)C1 (stereo not drawn) [Example 1-58, 3-{[4-(2,4-Dichloro-phenoxy)-butyryl]-methyl-amino}-cyclo-hexanecarboxylic acid] | 
30 | CN(C(=O)CCCOc1ccc(Cl)cc1Cl)C1CC2CC1CC2CO (stereo not drawn) [Example 1-84] | 
27 | O=C(CCCOc1ccc(Cl)cc1Cl)NC1CCC(CO)CC1 (stereo not drawn) [Example 1-75, 4-(2,4-Dichloro-phenoxy)-N-(4-hydroxy-methyl-cyclohexyl)-butyramide] | 
25 | O=C(CCCOc1ccc(Cl)cc1Cl)N1CC2CC3CC1CC(C(=O)O)(C3)C2 (stereo not drawn) [Example 1-67, 4-[4-(2,4-Dichloro-phenoxy)-butyryl]-4-aza-tricyclo[4.3.1.1{3,8}]-undecane-1-carboxylic acid] | 
23 | CN(C(=O)CCCOc1ccc(Cl)cc1Cl)C1CCC(C(C)(C)O)CC1 (stereo not drawn) [Example 1-78, 4-(2,4-Dichloro-phenoxy)-N-[4-(1-hydroxy-1-methyl-ethyl)-cyclohexyl]-N-methyl-butyramide] | 
21 | CN(C(=O)CCCOc1ccc(Cl)cc1Cl)C1CCC(S(=O)(=O)N(C)C)CC1 (stereo not drawn) [Example 1-71, 4-(2,4-Dichloro-phenoxy)-N-(4-dimethyl-sulfamoyl-cyclohexyl)-N-methyl-butyramide] | 
9 | CC(C)(O)C12CC3CC(C1)C(NC(=O)CCCOc1ccc(Cl)cc1Cl)C(C3)C2 (stereo not drawn) [Example 1-83, 4-(2,4-Dichloro-phenoxy)-N-[5-(1-hydroxy-1-methyl-ethyl)-adamantan-2-yl]-butyramide] | 
4 | CN(C(=O)CCCOc1ccc(Cl)cc1Cl)C1C2CC3CC1CC(CO)(C3)C2 (stereo not drawn) [Example 1-65, 4-(2,4-Dichloro-phenoxy)-N-(5-hydroxy-methyl-adamantan-2-yl)-N-methyl-butyramide] | 
4 | O=C(NC1C2CC3CC1CC(O)(C3)C2)C1(CCOc2ccc(Cl)cc2Cl)CC1 (stereo not drawn) [Example 2-5, 1-[2-(2,4-Dichloro-phen-oxy)-ethyl]-cyclo-pro-panecarboxylic acid (5-hydroxy-adamantan-2-yl)-amide] | 
3 | COC(=O)C12CC3CC(CN(C(=O)CCCOc4ccc(Cl)cc4Cl)C(C3)C1)C2 (stereo not drawn) [Example 1-66, 4-[4-(2,4-Dichloro-phenoxy)-butyryl]-4-aza-tricyclo[4.3.1.1{3,8}]-undecane-1-carboxylic acid methyl ester] | 
3 | CC(C)(CCOc1ccc(Cl)cc1Cl)C(=O)NC1C2CC3CC1CC(CO)(C3)C2 (stereo not drawn) [Example 2-4, 4-(2,4-Dichloro-phen-oxy)-N-(5-hydroxy-methyl-adamantan-2-yl)-2,2-dimethyl-butyramide] | 
2 | CN(C(=O)CCCOc1ccc(Cl)cc1Cl)C1CCC(S(N)(=O)=O)CC1 (stereo not drawn) [Example 1-69, 4-(2,4-Dichloro-phenoxy)-N-methyl-N-(4-sulfamoyl-cyclohexyl)-butyramide] | 
2 | CC(C)(CCOc1ccc(Cl)cc1Cl)C(=O)NC1C2CC3CC1CC(O)(C3)C2 (stereo not drawn) [Example 2-1, 4-(2,4-Dichloro-phenoxy)-N-(5-hydroxy-adamantan-2-yl)-2,2-dimethyl-butyramide] | 
